This data set in a line: Reactivity index (RI) between compound and carrageenan, viscosity change (Test Examples 2, 10). The note with it: uncoated compound, 10 ppm in 1 mass% carrageenan. Format: physicochemical. The procedure:
The measurement device, measurement, control sample, and D0 were the same as those in Test Example 1. An aqueous methanol solution containing a polyphenolic compound was prepared by dissolving the polyphenolic compound in an aqueous methanol solution (methanol concentration: 50 mass%) and diluted to 1 mg/mL in a measuring cylinder. 200 µL of this solution was added to 20 g of the same solution as the control sample (aqueous solution of 1 mass% carrageenan) and homogeneously mixed. The obtained solution was determined to be an uncoated sample. Additionally, a solution was prepared in the same manner as the uncoated sample, except that a 50% (v/v) aqueous methanol solution was used instead of the aqueous methanol solution containing a polyphenolic compound and determined to be a methanol sample. Evaluation Method: The progress distance (mm) of the control sample is D0. The progress distance (mm) of the uncoated sample is D1. The progress distance (mm) of the methanol sample is D1M. The reactivity index (RI) between a polyphenolic compound and carrageenan was calculated according to the following formula.
In this test system, the addition of an aqueous solution causes some decrease in viscosity due to a dilution effect. Thus, the determination method described above was used to detect the changes in viscosity due to the effect of a polyphenolic compound. Note that ±10% of the RI value was assumed to be within the margin of error (i.e., an RI value of 0.9 to 1.1 was assumed to be within the margin of error).
In the same manner as in Test Example 2, epigallocatechin gallate (polyphenolic compound), syringin and eleutheroside E (lignan compounds), and spermidine (basic substance) were prepared, and the effects of these substances on the viscosity of carrageenan were measured, and their reactivity was evaluated. Note that spermidine was dissolved in purified water, and the prepared aqueous solution was used as a sample.

[1] abbreviates: Test Example 10, spermidine dissolved in purified water.
The mark [2] stands for this setting: Test Example 2, vs methanol sample, 1.1<RI = viscosity decreased.

Experimental findings from US20230276836A1, “ORAL RETENTION COMPOSITION” (BIZEN CHEMICAL CO., LTD., priority 2020, published 2023) are described below.

Structures are written as SMILES.

Under setting [1], `NCCCCNCCCN` [Comparative Example 15, Spermidine] displayed an RI of 1.5.

Regarding `Oc1ccc(C=Cc2cc(O)cc(O)c2)cc1` [Comparative Example 6, Resveratrol], the RI under setting [2] was determined as 3.5.

`O=C(OC[C@H]1O[C@@H](OC(=O)c2cc(O)c(O)c(OC(=O)c3cc(O)c(O)c(O)c3)c2)[C@H](OC(=O)c2cc(O)c(O)c(OC(=O)c3cc(O)c(O)c(O)c3)c2)[C@@H](OC(=O)c2cc(O)c(O)c(OC(=O)c3cc(O)c(O)c(O)c3)c2)[C@@H]1OC(=O)c1cc(O)c(O)c(OC(=O)c2cc(O)c(O)c(O)c2)c1)c1cc(O)c(O)c(OC(=O)c2cc(O)c(O)c(O)c2)c1` [Comparative Example 4, Tannic Acid] showed an RI under setting [2] of 2.5.

For `COc1cc([C@H]2OC[C@@H]3[C@@H]2CO[C@H]3c2cc(OC)c(O[C@@H]3O[C@H](CO)[C@@H](O)[C@H](O)[C@H]3O)c(OC)c2)cc(OC)c1O[C@@H]1O[C@H](CO)[C@@H](O)[C@H](O)[C@H]1O` [Comparative Example 14, Eleutheroside E], the RI under setting [1] amounted to 2.1.

Under setting [2], `O=c1c(O)c(-c2ccc(O)c(O)c2)oc2cc(O)cc(O)c12` [Comparative Example 5, Quercetin] showed an RI of 2.2.

With `O=C(/C=C/c1ccc(O)c(O)c1)O[C@@H]1C[C@](O)(C(=O)O)C[C@@H](O)[C@H]1O` [Comparative Example 3, Chlorogenic Acid], the RI under setting [2] was determined as 4.1.

Turning to `O=C(O[C@@H]1Cc2c(O)cc(O)cc2O[C@@H]1c1cc(O)c(O)c(O)c1)c1cc(O)c(O)c(O)c1` [Comparative Example 12, Epigallocatechin Gallate], the RI under setting [1] came out at 4.4.

For the molecule `COc1cc(/C=C/CO)cc(OC)c1O[C@@H]1O[C@H](CO)[C@@H](O)[C@H](O)[C@H]1O` [Comparative Example 13, Syringin], the RI under setting [1] stood at 2.3.
